Marks after values point to notes of the source that are not given here.
Experiments:
Format in all cases: cell-based
[1] = test system: outbred mouse embryo; test: Outbred mouse embryo development in culture, fertilized eggs cultured 4 days (G1.2 48 h, then G2.2 48 h)
Description: Embryos were cultured at 37° C. in 6% CO2:5% O2:89% N2 in an embryo incubation volume of 10 embryos: 20 μl of medium. Embryos were cultured in medium G 1.2 for 48 h followed by 48 h of culture in medium G 2.2.
Initial experiments investigated replacing albumin purified from blood with HYN for outbred mouse embryo development in culture. Fertilized eggs were cultured for 4 days in one of 4 different concentrations of HYN. Embryos were cultured at 37° C. in 6% CO2:5% O2:89% N2 in an embryo incubation volume of 10 embryos: 20 μl of medium. Embryos were cultured in medium G1.2 for 48 h followed by 48 h of culture in medium G2.2. The negative control treatment was no protein.
Fertilized eggs were cultured for 4 days. Embryos were cultured at 37° C. in 6% CO2:5% O2:89% N2 in an embryo incubation volume of 10 embryos: 20 μl of medium. Embryos were cultured in medium G 1.2 for 48 h followed by 48 h of culture in medium G 2.2.
Embryos were cultured at 37° C. in 6% CO2:5% O2:89% N2 in an embryo incubation volume of 10 embryos: 20 μl of medium. Embryos were cultured in medium G1.2 for 48 h followed by 48 h of culture in medium G2.2.

[2] = test system: mouse embryo; test: Mouse embryo development in culture, 48 h in G1.2, with or without citrate
Description: Embryos were cultured at 37° C. in 6% CO2:5% O2:89% N2 in an embryo incubation volume of 10 embryos: 20 μl of medium. Embryos were cultured in medium G1.2 for 48 h.

[3] = test system: cow embryos; test: Cow embryo development in culture, fertilized eggs cultured 6 to 7 days (G1.2 72 h, then G2.2 72 h); settings: Example 7, cow
Description: (§1) Fertilized eggs were cultured for 6 to 7 days. Embryos were cultured at 38.5° C. in 6% CO2:5% O2:89% N2 in 500 μl of medium. Embryos were cultured in medium G1.2 for 72 h followed by 72 h of culture in medium G2.2.
as §1
Fertilized eggs were cultured for 6 to 7 days. Embryos were cultured at 38.5° C. in 6% CO2:5% O2:89% N2 in 500 μl of medium. Embryos were cultured in medium G1.2 for 72 h, followed by 72 h of culture in medium G2.2. Blastocysts were either stained for cell numbers or frozen and subsequently thawed to assess survival.

[4] = test system: CF1 mouse blastocysts; test: Blastocyst attachment and outgrowth in culture following cryopreservation
Description: The ability of the blastocysts to outgrow in culture following cryopreservation was also assessed. The outgrowth of both the ICM and TE was scored between 0-3 where 0 represented no outgrowth and 3 represented extensive outgrowth.

[5] = treatment +/+ (citrate in first 48 h / further 48 h), medium with rHA and HYN
[6] = treatment +/− (citrate in first 48 h / further 48 h), medium with rHA and HYN
[7] = treatment −/+ (citrate in first 48 h / further 48 h), medium with rHA and HYN
[8] = citrate added to medium G1.2 with rHA and HYN
[9] = HYN 0.125 mg/ml, no protein, 4 days culture
[10] = HYN 0.5 mg/ml, no protein, 4 days culture
[11] = HYN 1 mg/ml, no protein, 4 days culture

Compound: O=C(O)CC(O)(CC(=O)O)C(=O)O [citrate]
- embryo development ([1]; Example 6, citrate added to medium with rHA and HYN, 96 h): significantly increased
- % ICM/Total [1, 5]: 30.4%
- Cell Number [1, 5]: 100.7
- Hatching (% of Total) [1, 5]: 18.2%
- Morula/Blastocyst (%) [1, 5]: 72.7%
- TE Number [1, 5]: 69.8
- Total Blastocyst (%) [1, 5]: 62.7%
- % ICM/Total [1, 6]: 30.7%
- Cell Number [1, 6]: 112.6
- Hatching (% of Total) [1, 6]: 16.8%
- ICM Number [1, 6]: 34.9
- Morula/Blastocyst (%) [1, 6]: 71.3%
- TE Number [1, 6]: 77.7
- Total Blastocyst (%) [1, 6]: 67.3%
- % ICM/Total [1, 7]: 34.5%
- Cell Number [1, 7]: 94.8
- Hatching (% of Total) [1, 7]: 23.2%
- ICM Number [1, 7]: 33.4
- Morula/Blastocyst (%) [1, 7]: 68.5%
- TE Number [1, 7]: 61.44
- Total Blastocyst (%) [1, 7]: 64.8%
- % 8 cell [2, 8]: 81.1* %
- % compacted [2, 8]: 12.2* %
- Day 3 mean cell number [2, 8]: 7.21 ± 0.13
- embryo development ([2]; citrate added to medium containing rHA and fermented HYN): significant increase

Compound: hyaluronan [HYN]
- Total Blastocyst Day 6 ([3]; day 6): 16.9^b
- Total Blastocyst Day 7 ([3]; day 7): 30.4
- % ICM/Total [1, 9]: 26.5 ± 0.6^ac %
- Blastocyst [1, 9]: 88.6^a
- Cell Number [1, 9]: 79.6 ± 1.9^bc
- Hatching [1, 9]: 57.1b^c
- ICM Number [1, 9]: 21.2 ± 0.8^bc
- TE Number [1, 9]: 58.7 ± 1.5^bc
- % ICM/Total [1, 10]: 28.3 ± 1.1^bc %
- Blastocyst [1, 10]: 100^a
- Cell Number [1, 10]: 64.2 ± 1.9^ac
- Hatching [1, 10]: 50^b
- ICM Number [1, 10]: 18.0 ± 0.7^ac
- TE Number [1, 10]: 46.7 ± 2.0^a
- % ICM/Total [1, 11]: 26.4 ± 0.9^ac %
- Blastocyst [1, 11]: 61.8^b
- Cell Number [1, 11]: 62.0 ± 2.7^ac
- Hatching [1, 11]: 23.5^a
- ICM Number [1, 11]: 17.5 ± 0.8^ac
- TE Number [1, 11]: 49.1 ± 2.5^a
- mouse embryo development ([1]; concentrations from 0.125 to 0.5 mg/ml): stimulated
- development of the ICM (outgrowth) compared to human serum albumin [4]: increased

Source: patent US20040214320A1, “Mammalian gamete and embryo culture media supplement and method of using same” (Vitrolife, Inc,, priority 2000, published 2004)
